Here are results for 16 compounds from US20250326732A1 (Pretzel Therapeutics, Inc., priority 2021, published 2025).

Each structure is given as a SMILES string. pIC50: −log10 of the molar value.

Sequence of POLRMT (O00411 42-1230): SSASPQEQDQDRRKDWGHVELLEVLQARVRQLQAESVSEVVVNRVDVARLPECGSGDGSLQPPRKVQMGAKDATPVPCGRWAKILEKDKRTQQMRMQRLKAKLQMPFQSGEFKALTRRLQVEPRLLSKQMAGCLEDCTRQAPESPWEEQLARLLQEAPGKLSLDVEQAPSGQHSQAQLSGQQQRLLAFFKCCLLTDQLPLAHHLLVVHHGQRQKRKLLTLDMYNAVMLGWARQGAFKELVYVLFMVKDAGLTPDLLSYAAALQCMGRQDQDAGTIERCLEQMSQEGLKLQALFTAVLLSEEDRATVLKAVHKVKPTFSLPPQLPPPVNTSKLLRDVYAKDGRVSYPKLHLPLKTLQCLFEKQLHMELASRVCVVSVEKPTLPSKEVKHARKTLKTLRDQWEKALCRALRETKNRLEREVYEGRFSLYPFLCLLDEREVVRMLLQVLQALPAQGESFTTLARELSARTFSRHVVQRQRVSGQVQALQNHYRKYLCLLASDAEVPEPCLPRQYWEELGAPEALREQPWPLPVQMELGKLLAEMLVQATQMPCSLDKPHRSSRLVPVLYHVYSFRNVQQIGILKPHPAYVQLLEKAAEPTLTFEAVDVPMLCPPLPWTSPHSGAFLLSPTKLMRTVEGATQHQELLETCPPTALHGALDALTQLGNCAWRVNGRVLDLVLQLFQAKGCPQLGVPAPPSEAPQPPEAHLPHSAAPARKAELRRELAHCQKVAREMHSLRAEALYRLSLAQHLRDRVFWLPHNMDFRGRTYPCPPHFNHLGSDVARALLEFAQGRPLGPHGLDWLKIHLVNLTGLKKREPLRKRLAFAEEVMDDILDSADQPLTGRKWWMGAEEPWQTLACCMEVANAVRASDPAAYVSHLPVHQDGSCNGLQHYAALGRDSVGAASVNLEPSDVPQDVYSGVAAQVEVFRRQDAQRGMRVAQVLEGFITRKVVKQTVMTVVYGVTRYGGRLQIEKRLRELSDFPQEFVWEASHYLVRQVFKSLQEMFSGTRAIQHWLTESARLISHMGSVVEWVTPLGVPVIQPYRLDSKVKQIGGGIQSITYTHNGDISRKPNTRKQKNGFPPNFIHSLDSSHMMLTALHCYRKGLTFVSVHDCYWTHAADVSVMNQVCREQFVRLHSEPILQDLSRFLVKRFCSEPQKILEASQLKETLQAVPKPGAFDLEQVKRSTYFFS

The assay has as its target POLRMT (Homo sapiens (Human), UniProt O00411). Briefly: homogeneous TR-FRET assay of mitochondrial transcription (inhibition of POLRMT). In kind it is biochemical. The note with it: 7.5 nM POLRMT, 15 nM TFB2M, 30 nM TFAM, 0.5 nM DNA template, 500 μM NTPs, 37° C. for 60 minutes. The procedure: The ability of some compounds of the present invention to inhibit POLRMT were determined in a homogeneous TR-FRET Assay using high-throughput screening in a 384-well plate format. […] Detection of the product is facilitated by hybridization of two DNA-oligonucleotide probes to specific and adjacent sequences within the RNA product sequence. Upon annealing of the probes, two fluorophores are coupled directly to an acceptor nucleotide probe (ATTO647, 5′), or introduced via a coupled streptavidin with a biotinylated donor nucleotide probe (Europium cryptate) that is brought into sufficient proximity to serve as a fluorescence-donor-acceptor pair. Thus, a FRET signal at 665 nm is generated upon excitation at 340 nm.
The DNA template is restriction linearized proximal to the promotor 3′-end (pUC-LSP). […] No nucleotide triphosphate mix is added to negative control samples. Microplates with compounds to be tested in the assay are prepared from 10 mM compound stocks in 100% DMSO, equal amounts of DMSO without any compound are added to positive control and negative control samples.
During the incubation, a mix of the detection reagents is prepared in a buffer such that the enzymatic reaction is terminated due to chelating of Mg-ions and increased ionic strength, containing 50 mM Tris-HCl (pH 7.5), 700 mM NaCl, 20 mM EDTA, and 0.01% (w/v) Tween-20. Europium-streptavidin is pre-incubated with a 200-fold molar excess of a random sequence oligonucleotide to block unspecific binding of oligo, for two hours at ambient temperature in the dark. Afterwards, the blocked Europium-streptavidin is kept on ice until use.
At the end of the enzymatic reaction time, 5 μL detection oligo mix in the detection buffer is added, and assay plates are mixed and kept at ambient temperature for one hour, protected from light. The concentration of the Acceptor nucleotide oligo (e.g., ATTO647N-5′-[…]-3′) and Donor nucleotide oligo (e.g., bio-5′-[…](-bio)[…]-bio-3′) in each assay well is 1 nM, and 3 nM, respectively.
After incubation with oligo mix, 5 μL of pre-blocked Europium-streptavidin reagent is dispensed to each assay well, assay plates are again mixed and kept at ambient temperature for one hour, protected from light.
The generated signal is measured with BMG Pherastar microtiter plate reader with a TRF light unit, using excitation at 340 nm, an integration time of 200 μs, and a delay time of 100 μs, before detection at 620 nm and 665 nm. The ratio of donor- and acceptor-fluorescence is used as a measure of the generated transcript product (i.e. enzymatic activity).
A general note: Time-resolved FRET reads energy transfer from a long-lived donor to a nearby acceptor.
As for `C[C@@H](Nc1ccc2c(-c3ccc(F)cc3Cl)cc(=O)oc2c1)C(=O)N(C)C` [Example 28, (R)-2-((4-(2-chloro-4-fluorophenyl)-2-oxo-2H-chromen-7-yl)amino)-N,N-dimethylpropanamide], the pIC50 – broadly, the negative decadic logarithm of the IC50, by convention in mol/L – was 6.10. Regarding `Cc1ccccc1-c1cc(=O)oc2cc(N(C)C(C)C(N)=O)ccc12` (stereo not shown) [Example 195, 2-(methyl(2-oxo-4-(o-tolyl)-2H-chromen-7-yl)amino)propanamide], the pIC50 is 7.30. `Cc1ccccc1-c1cc(=O)oc2cc(N(C)CC(N)=O)ccc12` [Example 106, 2-(methyl(2-oxo-4-(o-tolyl)-2H-chromen-7-yl)amino)acetamide] gave a pIC50 of 6.70. The compound `Cc1ccccc1-c1cc(=O)oc2cc(C(=O)NCC(N)=O)ccc12` [Example 113, N-(2-amino-2-oxoethyl)-2-oxo-4-(o-tolyl)-2H-chromene-7-carboxamide] had a pIC50 of 4.92. The same measure for `CC(=O)NC1CCCN(C(=O)c2ccc3c(-c4ccccc4C)cc(=O)oc3c2)C1` (single isomer, unassigned) [Example 176, N-(1-(2-oxo-4-(o-tolyl)-2H-chromene-7-carbonyl)piperidin-3-yl)acetamide]: 4.12.

For the compound `Cc1ccccc1-c1cc(=O)oc2cc(N(C)CC(C)(C)C(=O)O)ccc12` [Example 128, 2,2-dimethyl-3-(methyl(2-oxo-4-(o-tolyl)-2H-chromen-7-yl)amino)propanoic acid], the pIC50 was 7.52.

The compound `COC(=O)/C=C(\C)c1ccc2c(-c3ccccc3C)cc(=O)oc2c1` [Example 57, methyl (E)-3-(2-oxo-4-(o-tolyl)-2H-chromen-7-yl)but-2-enoate] showed a pIC50 of 6.52. Regarding `Cc1ccccc1-c1cc(=O)oc2cc(N(C)CC(=O)NCCO)ccc12` [Example 219, N-(2-hydroxyethyl)-2-(methyl(2-oxo-4-(o-tolyl)-2H-chromen-7-yl)amino)acetamide], the pIC50 is 6.70. Turning to `CCOC(=O)[C@H]1C[C@@H]1c1ccc2c(-c3ccccc3C)cc(=O)oc2c1` [Example 225, ethyl (1S,2S)-2-(2-oxo-4-(o-tolyl)-2H-chromen-7-yl)cyclopropane-1-carboxylate], the pIC50 was 6.15. The same measure for `CCN(C)C(=O)c1ccc2c(-c3ccc(F)cc3Cl)cc(=O)oc2c1` [Example 23, 4-(2-chloro-4-fluorophenyl)-N-ethyl-N-methyl-2-oxo-2H-chromene-7-carboxamide]: 4.72; for `Cc1ccccc1-c1cc(=O)oc2cc(C(=O)N3CC(CO)C3)ccc12` [Example 118, 7-(3-(hydroxymethyl)azetidine-1-carbonyl)-4-(o-tolyl)-2H-chromen-2-one]: 4.82.

As for `COC[C@H](Nc1ccc2c(-c3ccccc3C)cc(=O)oc2c1)C(=O)N1CCC[C@H](C(=O)O)C1` [Example 103, (S)-1-(O-methyl-N-(2-oxo-4-(o-tolyl)-2H-chromen-7-yl)-seryl)piperidine-3-carboxylic acid], the pIC50 was 5.30. As to `Cc1ccccc1-c1cc(=O)oc2cc(CC(C)C(=O)N3CCC[C@H](C(N)=O)C3)ccc12` (single isomer, unassigned) [Example 90], the pIC50 was 5.10. Regarding `Cc1ccccc1-c1cc(=O)oc2cc(CC(C)C(=O)N(C)C)ccc12` (single isomer, unassigned) [Example 65, N,N,2-trimethyl-3-(2-oxo-4-(o-tolyl)-2H-chromen-7-yl)propanamide], the pIC50 was 4.77. The same measure for `Cc1ccccc1-c1cc(=O)oc2cc(N(C)CC(=O)NS(C)(=O)=O)ccc12` [Example 191, 2-(methyl(2-oxo-4-(o-tolyl)-2H-chromen-7-yl)amino)-N-(methylsulfonyl)acetamide]: 5.15. Then `Cc1ccccc1-c1cc(=O)oc2cc(CNC(=O)C3CCC(C(=O)O)CC3)ccc12` (stereo not shown) [Example 153, 4-(((2-oxo-4-(o-tolyl)-2H-chromen-7-yl)methyl)carbamoyl)cyclohexane-1-carboxylic acid], with 6.70.
